Reference: patent US12264170B2, “Antimicrobial organosilanes” (TOPIKOS SCIENTIFIC, INC., priority 2019, dated 2025)
Converted amounts (≈) assume the structure as drawn.

Columns and labels:
Format in all cases: cell-based
[1] = system: Acinetobacter baumannii Eurofins 1674627; experiment: MIC microdilution assay (Example 32); settings: Acinetobacter baumannii; A. baumannii Eurofins 1674627; 35±2° C. 18 to 20 hours; two values given; read-out: MIC
[2] = system: Pseudomonas aeruginosa CDC 0248; experiment: MIC microdilution assay (Example 32); settings: Pseudomonas aeruginosa, CDC0248; P. aeruginosa CDC 0248; CAMHB; 35±2° C. 18 to 20 hours; two values given; read-out: MIC
[3] = system: Candida albicans ATCC 90028; experiment: MIC microdilution assay (Example 32); settings: Candida albicans, ATCC90028; C. albicans ATCC 90028 (quality control); RPMI media; 35±2° C. 24 to 48 hours; two values given; read-out: MIC
Protocol: (§1) Strain IDs starting with “ATCC” were acquired from the American Type Culture Collection (Manassas, VA), strain IDs starting with “Eurofins” were acquired from Eurofins (Herndon, VA), while strain IDs starting with “CDC” were acquired from the Centers for Disease Control and Prevention (Atlanta, GA). All strains were maintained as −80° C. frozen glycerol stocks. S. aureus and P. aeruginosa were grown overnight on Tryptic Soy Agar (TSA) plates at 35±2° C., ambient atmosphere, while S. pyogenes was grown overnight on TSA+5% defibrinated sheep blood at 35±2° C., 5% CO2. C. jejuni was grown for 48 hours on TSA+5% defibrinated sheep blood at 35±2° C., in a microaerophilic environment generated by CampyGen sachet. All fungal species (i.e. C. albicans and C. auris) were grown overnight on Sabouraud Dextrose Agar (SDA) plates at 35±2° C., ambient atmosphere.
(§2) Test article Compound 1 (batch #7G30A9.203) was stored at 4° C. The antibiotic Tobramycin and antifungal Amphotericin B were used as quality control (QC) compounds for the MIC assay. Stock solutions of 3.2 mg/mL Tobramycin (Sigma-Aldrich, cat #T1783-500MG) and 3.2 mg/mL Amphotericin B (CP Lab Chemicals, cat #TOK-A007-1G) were prepared in sterile ultrapure water.
(§3) For bacteria strains, a few colonies of each strain were collected with a sterile swab and used to make a McFarland 0.5 standard solution (approximately 1×10^8 CFU/mL) in sterile PBS. The McFarland was then diluted 1:180 in Cation Adjusted Muller-Hinton Broth (CAMHB) for S. aureus and P. aeruginosa. S. pyogenes McFarland was diluted 1:180 in CAMHB+5% defibrinated sheep blood, while C. jejuni McFarland was diluted 1:180 in CAMHB+5% laked horse blood. 90 μL of this inoculum was combined with 10 μL of the 10× test article in a 96-well plate for a final concentration of 1×.
(§4) For the yeasts C. albicans and C. auris, a McFarland 0.5 standard solution in sterile PBS was similarly prepared (approximately 1×10^6 CFU/mL) and was subsequently diluted 1:180 in RPMI 1640 media buffered with 0.165 M MOPS at pH 7.0 (herein referred to as “RPMI media”). 90 μL of the Candida inoculum was combined with 10 μL of the 10× test article in a 96-well plate for a final concentration of 1×.
(§5) Except for C. jejuni, all bacterial-strain MIC 96-well plates were incubated at 35±2° C. for 18 to 20 hours, ambient atmosphere. C. jejuni was incubated at 35±2° C. for 48 hours, under microaerophilic condition. All Candida MIC 96-well plates were incubated at 35±2° C. for 24 to 48 hours, ambient atmosphere, until growth in control wells were observed. After incubation, the 96-well plates were examined visually and on a spectrophotometer at absorbance OD650. MIC is defined as the lowest concentration of a compound in which no visible growth is observed.

[4] = system: Candida auris CDC 0385; experiment: MIC microdilution assay (Example 32); settings: Candidozyma auris, CDC0385; C. auris CDC 0385; RPMI media; 35±2° C. 24 to 48 hours; two values given; read-out: MIC
Protocol: as §1, §2, §3, §4, §5

[5] = system: Staphylococcus aureus ATCC 33591; experiment: MIC microdilution assay; settings: Staphylococcus aureus, ATCC33591; S. aureus ATCC 33591; CAMHB; 35±2° C. 18 to 20 hours; two values given; read-out: MIC
Protocol: (§6) Strain numbers starting with “ATCC” were acquired from the American Type Culture Collection (Manassas, VA), while strain numbers starting with “CDC” were acquired from the Centers for Disease Control and Prevention (Atlanta, GA). All strains were maintained as −80° C. frozen glycerol stocks. S. aureus and P. aeruginosa were grown overnight on Tryptic Soy Agar (TSA) plates at 35±2° C., ambient atmosphere, while S. pyogenes was grown overnight on TSA+5% defibrinated sheep blood at 35±2° C., 5% CO2. All fungal species (i.e. C. albicans, C. auris and C. herbarum) were grown on Sabouraud Dextrose Agar (SDA) plates. C. herbarum was grown at 25±2° C. for 5 to 7 days, while all other fungal strains were grown at 35±2° C. overnight.
as §2, with “Test articles” for “Test article”, “Compound 2” for “Compound 1”, “(batch #2G13A0.368) and Compound 23 (batch #2G17A0.372) were received and” for “(batch #7G30A9.203) was”
as §3, with “aeruginosa, and” for “aeruginosa. S. pyogenes McFarland was diluted 1:180”, “[…]+5%” for “CAMHB+5%”, “blood for S. pyogenes.” for “blood, while C. jejuni McFarland was diluted 1:180 in CAMHB+5% laked horse blood.”
All bacterial-strain MIC 96-well plates were incubated at 35±2° C. for 18 to 20 hours, while all Candida MIC 96-well plates were incubated at 35±2° C. for 24 to 48 hours. C. herbarum MIC 96-well plates were incubated at 25±2° C. for 3 to 5 days, until growth was visible in the growth control wells. After incubation, the 96-well plates were examined visually and on a spectrophotometer at absorbance OD650. […]

[6] = system: Candida auris CDC 0381; experiment: MIC microdilution assay; settings: Candidozyma auris, CDC0381; C. auris CDC 0381; RPMI media; 35±2° C. 24 to 48 hours; two values given; read-out: MIC
Protocol: as §6
as §2, with “Test articles” for “Test article”, “Compound 2” for “Compound 1”, “(batch #2G13A0.368) and Compound 23 (batch #2G17A0.372) were received and” for “(batch #7G30A9.203) was”
as §3, with “aeruginosa, and” for “aeruginosa. S. pyogenes McFarland was diluted 1:180”, “[…]+5%” for “CAMHB+5%”, “blood for S. pyogenes.” for “blood, while C. jejuni McFarland was diluted 1:180 in CAMHB+5% laked horse blood.”
as §4
(§7) All bacterial-strain MIC 96-well plates were incubated at 35±2° C. for 18 to 20 hours, while all Candida MIC 96-well plates were incubated at 35±2° C. for 24 to 48 hours. C. herbarum MIC 96-well plates were incubated at 25±2° C. for 3 to 5 days, until growth was visible in the growth control wells. After incubation, the 96-well plates were examined visually and on a spectrophotometer at absorbance OD650. MIC is defined as the lowest concentration of a compound in which no visible growth is observed.

[7] = system: Candida albicans ATCC 90028; experiment: MIC microdilution assay; settings: Candida albicans, ATCC90028; C. albicans ATCC 90028; RPMI media; 35±2° C. 24 to 48 hours; two values given; read-out: MIC
Protocol: as §6
as §2, with “Test articles” for “Test article”, “Compound 2” for “Compound 1”, “(batch #2G13A0.368) and Compound 23 (batch #2G17A0.372) were received and” for “(batch #7G30A9.203) was”
as §3, with “aeruginosa, and” for “aeruginosa. S. pyogenes McFarland was diluted 1:180”, “[…]+5%” for “CAMHB+5%”, “blood for S. pyogenes.” for “blood, while C. jejuni McFarland was diluted 1:180 in CAMHB+5% laked horse blood.”
as §4, §7

For `NC[C@H]1O[C@H](O[C@H]2[C@H](O)[C@@H](O[C@H]3O[C@H](CO)[C@@H](O)[C@H](N)[C@H]3O)[C@H](N)C[C@@H]2N)[C@H](N)C[C@@H]1O` [Tobramycin], the MIC [1] was 1 µg/mL (≈ 2.14 µM), the MIC [2] was over 32 µg/mL and the MIC [3] was over 32 µg/mL. The MIC [4] was over 32 µg/mL, the MIC [5] was over 32 µg/mL and the MIC [6] was over 32 µg/mL. For the same molecule, the MIC [7] was over 32 µg/mL.
